According to US9040527B2, “Pyrimidinediamine kinase inhibitors” (Rigel Pharmaceuticals, Inc., priority 2008, dated 2015):

What was measured:
PLK1 [1] = target: T1, PLK1 (Homo sapiens, UniProt P53350); assay: Cellular PLK1 assay in K562 cells overexpressing CDC25C; assay type: cell-based; parameters: endogenous in cells; host or cells: K562 (human chronic myelogenous leukemia) overexpressing CDC25C, nocodazole-arrested; conditions: nocodazole arrested, cdc25c p-Ser198 readout
Procedure: Inhibition of PLK1 was measured by quantifying phosphorylation of PLK1 substrates using chemiluminescent and fluorogenic probes. The protocols for these assays are provided below.
1. Culturing of K562 Cells
Human chronic myelogenous leukemia K562 cells (American Tissue Culture Collection) overexpressing CDC25C, were grown in Growth Medium having the following composition: Iscove Dulbecco's Modified Eagle's Medium (“Iscove DMEM”, Mediatech/Cellgro, Cat. #10-013-CV), 10% Fetal Bovine Serum (“FBS”, SAFC Biosciences, Cat. #12106-500M), and 1% penicillin/streptomycin (“pen-strep”, Mediatech/Cellgro, Cat. #30-002-CI). The cells were plated in 96 well round bottom tissue culture plates (Fisher, Costar* Cell Culture plates, Cat. #07-200-95) at 100,000 cells per 50 μL of Growth Medium per well. Nocodazole (Sigma, Cat. # M1404) was added to the growth media to arrest the cells in the G2 or M phase, at 333 nM concentration. The cells were incubated with nocodazole for 18 hours at 37° C. prior to addition of tested compounds.
2. Treatment of Cells with the Tested Compounds
Solutions of tested compounds in DMSO at different concentrations were prepared using serial dilutions. Each compound was tested at 8 concentration points, 10 μM, 3.3 μM, 1.11 μM, 0.37 μM, 0.12 μM, 0.04 μM, 0.014 μM, 0.005 μM, duplicate replicates.
Two controls were performed: “DMSO alone” control in which nocodazole and DMSO were present but no compounds were added, and “nocodazole alone” control, in which only nocodazole was present, but neither DMSO nor compounds were added.
The solutions of compounds were prepared by diluting 10 mM compound 1:1 in DMSO (5 μL 10 mM compound and 5 μL DMSO), followed by 1:3 serial dilutions of compound in DMSO performed by diluting 3 μL of higher concentration compound solution serially into 6 μL DMSO to give 3-fold dilutions. Next, 3 μL of each compound solution at each concentration was transferred to 750 μL of Growth Medium. In “DMSO alone” control 3 μL of DMSO alone was added to 750 μL of Growth Medium.
After the diluted compounds were mixed well in the Growth Medium, 50 μL of each compound solution in DMSO/Growth Medium was transferred to each well of the 96-plate containing cells in 50 μL of Growth Medium/Nocodazole.
The cells and compounds were incubated for 120 minutes at 37° C., in an atmosphere containing 5% CO2.
3. Fixation and Permeabilization of the Cells
After the cells were incubated with compounds, the cells were spun down at 1,000 rpm for 5 minutes at 4° C. and supernatants were removed by flicking the plates. Cells were then washed with 200 μl of ice cold PBS, spun down again and supernatants removed. Cells were then fixed and permeabilized by addition of 100 μL/well of Fixation and Permeabilization Solution (1× buffer provided in BD Biosciences Cytofix/Cytoperm™ Fixation/Permeabilization kit, Cat. #554714) and incubation for 20 minutes at room temperature. The fixative was then removed by centrifugation (5 minutes at 2,000 rpm), and plates were flicked to remove the fixative and washed twice, each time with 200 μL/well BD Perm/Wash buffer (10× concentrate provided in BD Biosciences Cytofix/Cytoperm™ Fixation/Permeabilization kit, Cat. #554714, 1× buffer prepared by dilution in distilled H2O).
Cells were spun down at 1,000 rpm for 5 minutes at 4° C. Supernatants were removed by flicking the plates. A solution of a primary antibody specific for cdc25cp-Ser198 was prepared by diluting Rabbit cdc25c (Ser198) antibody (Cell Signaling, #9529L) 1:50 in a Fluorescence Activated Cell Sorting (“FACS”) Buffer (2% FBS in PBS). The cell pellets were resuspended in 50 μL of the primary antibody solution. 50 μL of FACS buffer was added to unstained controls. Staining was allowed to proceed overnight at room temperature.
The plates were then washed by addition of 200 μL of FACS Buffer to each well, were centrifuged and the supernatant was removed. […]

PLK1 [2] = target: T1, PLK1; assay: In vitro PLK1 ELISA assay (biochemical); parameters: purchased Cell Signalling 7728
Method in brief: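 Commercial PLK1 phosphorylates neutravidin-captured biotinylated CHK2 peptide for 45 min at room temperature in HEPES pH 7.2 with Mg2+/Mn2+/DTT, compounds at 10 μM to 0.005 μM. Phospho-CHK2(T68) antibody plus HRP secondary gives chemiluminescent read-out used for IC50.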

[3] = ELISA, CHK2-derived peptide substrate, read-out: PLK1 IC50 (μM) biochemical assay
[4] = read-out: IC50 in biochemical ELISA assay (less than 0.01 μM)
[5] = read-out: IC50 in biochemical in vitro PLK1 ELISA assay (less than 10 μM)

T1 sequence (P53350 whole entry): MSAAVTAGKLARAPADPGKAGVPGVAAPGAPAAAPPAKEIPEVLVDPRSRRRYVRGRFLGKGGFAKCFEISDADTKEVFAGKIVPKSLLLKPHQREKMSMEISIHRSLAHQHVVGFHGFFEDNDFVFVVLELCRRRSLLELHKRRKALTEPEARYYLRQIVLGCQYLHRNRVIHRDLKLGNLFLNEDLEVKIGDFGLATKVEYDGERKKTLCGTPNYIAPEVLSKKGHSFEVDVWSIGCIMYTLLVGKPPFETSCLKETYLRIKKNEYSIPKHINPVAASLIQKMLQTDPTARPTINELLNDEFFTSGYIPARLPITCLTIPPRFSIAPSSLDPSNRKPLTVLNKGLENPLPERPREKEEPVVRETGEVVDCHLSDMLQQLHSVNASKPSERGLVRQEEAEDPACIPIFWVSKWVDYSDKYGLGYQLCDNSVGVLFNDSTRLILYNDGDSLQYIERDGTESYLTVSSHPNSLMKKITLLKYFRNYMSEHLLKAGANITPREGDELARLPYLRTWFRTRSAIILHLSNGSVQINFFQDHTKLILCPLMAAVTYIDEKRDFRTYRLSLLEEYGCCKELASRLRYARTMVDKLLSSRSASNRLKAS

Row | SMILES | IC50 (PLK1 [1]) [µM] | IC50 (PLK1 [2]; [3]) [µM] | IC50 (PLK1 [2]; [4]) [µM] | IC50 (PLK1 [2]; [5]) [µM]
1 | CC(C)Oc1cc(Nc2ncc(F)c(Nc3ccc4c(n3)NC(=O)CO4)n2)cc(N2CCN(C)CC2)c1 [compound 25, 6-(5-fluoro-2-(3-isopropoxy-5-(4-methylpiperazin-1-yl)phenylamino)pyrimidin-4-ylamino)-2H-pyrido[3,2-b][1,4]oxazin-3(4H)-one] | < 0.5 | < 0.5 | < 0.01 | < 10
2 | CN1CCN(c2cccc(Nc3ncc(F)c(Nc4ccc5c(n4)N(CC4CC4)C(=O)CO5)n3)c2)CC1 [compound 108, 4-(cyclopropylmethyl)-6-(5-fluoro-2-(3-(4-methylpiperazin-1-yl)phenylamino)pyrimidin-4-ylamino)-2H-pyrido[3,2-b][1,4]oxazin-3(4H)-one] | 0.5 to 5 | < 0.5 | – | < 10
3 | CC(C)Oc1ccc(N2CCN(C)CC2)cc1Nc1ncc(F)c(Nc2ccc3c(n2)NCCO3)n1 [compound 23, N4-(3,4-dihydro-2H-pyrido[3,2-b][1,4]oxazin-6-yl)-5-fluoro-N2-(2-isopropoxy-5-(4-methylpiperazin-1-yl)phenyl)pyrimidine-2,4-diamine] | 0.5 to 5 | < 0.5 | – | < 10
4 | C#CCN1C(=O)COc2ccc(Nc3nc(Nc4cccc(N5CCN(C)CC5)c4)ncc3C)nc21 [compound 127, 6-(5-methyl-2-(3-(4-methylpiperazin-1-yl)phenylamino)pyrimidin-4-ylamino)-4-(prop-2-ynyl)-2H-pyrido[3,2-b][1,4]oxazin-3(4H)-one] | < 0.5 | < 0.5 | < 0.01 | < 10
5 | COc1ccc(CN2C(=O)COc3ccc(Nc4nc(Nc5cccc(N6CCN(C)CC6)c5)ncc4F)nc32)cc1 [compound 123, 6-(5-fluoro-2-(3-(4-methylpiperazin-1-yl)phenylamino)pyrimidin-4-ylamino)-4-(4-methoxybenzyl)-2H-pyrido[3,2-b][1,4]oxazin-3(4H)-one] | ≥ 10 | ≥ 10 | – | –
6 | CCCN1C(=O)COc2ccc(Nc3nc(Nc4ccc(N5CCN(S(C)(=O)=O)CC5)c(C(F)(F)F)c4)ncc3F)nc21 [compound 137, 6-(5-fluoro-2-(4-(4-(methylsulfonyl)piperazin-1-yl)-3-(trifluoro-methyl)phenyl-amino)pyrimidin-4-ylamino)-4-propyl-2H-pyrido[3,2-b][1,4]oxazin-3(4H)-one] | ≥ 10 | ≥ 10 | – | –
7 | CCCN1C(=O)COc2ccc(Nc3nc(Nc4ccc(N5CC6CC5CN6C(C)=O)c(C)c4)ncc3F)nc21 (stereo not drawn) [compound 35, 6-(2-(4-(5-acetyl-2,5-diazabicyclo[2.2.1]heptan-2-yl)-3-methylphenylamino)-5-fluoropyrimidin-4-ylamino)-4-propyl-2H-pyrido[3,2-b][1,4]oxazin-3(4H)-one] | 0.5 to 5 | < 0.5 | – | < 10
8 | CCCN1CCOc2ccc(Nc3nc(Nc4ccc(N5CC6CC5CN6C(C)=O)c(C)c4)ncc3F)nc21 (stereo not drawn) [compound 37, 1-(5-(4-(5-fluoro-4-(4-propyl-3,4-dihydro-2H-pyrido[3,2-b][1,4]oxazin-6-ylamino)pyrimidin-2-ylamino)-2-methyl-phenyl)-2,5-diaza-bicyclo[2.2.1]heptan-2-yl)ethanone] | 0.5 to 5 | 0.5 to 5 | – | < 10
9 | Cc1ccc(Nc2ncc(F)c(Nc3ccc4c(n3)NCCO4)n2)cc1N1CC2CC1CN2C (stereo not drawn) [compound 36, N4-(3,4-dihydro-2H-pyrido[3,2-b][1,4]oxazin-6-yl)-5-fluoro-N2-(4-methyl-3-(5-methyl-2,5-diazabicyclo[2.2.1]heptan-2-yl)phenyl)pyrimidine-2,4-diamine] | 0.5 to 5 | < 0.5 | < 0.01 | < 10
10 | Cc1cc(Nc2ncc(F)c(Nc3ccc4c(n3)N(Cc3ccccc3)C(=O)CO4)n2)ccc1N1CCN(C)CC1 [compound 118, 4-benzyl-6-(5-fluoro-2-(3-methyl-4-(4-methylpiperazin-1-yl)phenylamino)pyrimidin-4-ylamino)-2H-pyrido[3,2-b][1,4]oxazin-3(4H)-one] | 0.5 to 5 | ≥ 10 | – | –
11 | Cc1cc(Nc2ncc(F)c(Nc3ccc4c(n3)N(CC3CCCCC3)C(=O)CO4)n2)ccc1N1CCN(C)CC1 [compound 113, 4-(cyclohexylmethyl)-6-(5-fluoro-2-(3-methyl-4-(4-methylpiperazin-1-yl)phenylamino)pyrimidin-4-ylamino)-2H-pyrido[3,2-b][1,4]oxazin-3(4H)-one] | ≥ 10 | ≥ 10 | – | –
12 | CCCN1C(=O)COc2ccc(Nc3nc(Nc4ccc(N5CC6CC5CN6S(C)(=O)=O)c(C)c4)ncc3C)nc21 (stereo not drawn) [compound 32, 6-(5-methyl-2-(3-methyl-4-(5-(methylsulfonyl)-2,5-diazabicyclo[2.2.1]heptan-2-yl)phenylamino)pyrimidin-4-ylamino)-4-propyl-2H-pyrido[3,2-b][1,4]oxazin-3(4H)-one] | 0.5 to 5 | 0.5 to 5 | – | < 10
13 | COc1ccc(CN2C(=O)COc3ccc(Nc4nc(Nc5ccc(N6CCN(C)CC6)c(C)c5)ncc4C)nc32)cc1 [compound 126, 4-(4-methoxybenzyl)-6-(5-methyl-2-(3-methyl-4-(4-methylpiperazin-1-yl)phenylamino)pyrimidin-4-ylamino)-2H-pyrido[3,2-b][1,4]oxazin-3(4H)-one] | 0.5 to 5 | ≥ 10 | – | –
14 | CN1CCN(c2ccc(C3CC3)c(Nc3ncc(F)c(Nc4ccc5c(n4)NCCO5)n3)c2)CC1 [compound 34, N2-(2-cyclopropyl-5-(4-methylpiperazin-1-yl)phenyl)-N4-(3,4-dihydro-2H-pyrido[3,2-b][1,4]oxazin-6-yl)-5-fluoropyrimidine-2,4-diamine] | < 0.5 | < 0.5 | – | < 10
15 | CCCN1C(=O)COc2ccc(Nc3nc(Nc4ccc(N5CC6CC5CN6C)c(C)c4)ncc3C)nc21 (stereo not drawn) [compound 107, 6-(5-methyl-2-(3-methyl-4-(5-methyl-2,5-diazabicyclo[2.2.1]heptan-2-yl)phenylamino)pyrimidin-4-ylamino)-4-propyl-2H-pyrido[3,2-b][1,4]oxazin-3(4H)-one] | 0.5 to 5 | < 0.5 | – | < 10
16 | C#CCN1C(=O)COc2ccc(Nc3nc(Nc4cccc(N5CCN(C)CC5)c4)ncc3F)nc21 [compound 128, 6-(5-fluoro-2-(3-(4-methylpiperazin-1-yl)phenylamino)pyrimidin-4-ylamino)-4-(prop-2-ynyl)-2H-pyrido[3,2-b][1,4]oxazin-3(4H)-one] | 0.5 to 5 | < 0.5 | < 0.01 | < 10
17 | Cc1cnc(Nc2cccc(N3CCN(C)CC3)c2)nc1Nc1ccc2c(n1)N(Cc1ccccc1)C(=O)CO2 [compound 122, 4-benzyl-6-(5-methyl-2-(3-(4-methylpiperazin-1-yl)phenylamino)pyrimidin-4-ylamino)-2H-pyrido[3,2-b][1,4]oxazin-3(4H)-one] | 0.5 to 5 | < 0.5 | < 0.01 | < 10
